In patent publication US20060166937A1, “Bisphosphonates for the treatment of atherosclerosis and device comprising them” (priority 2002, published 2006):

Legend:
[1] = test system: patient with end stage renal failure undergoing dialysis; assay: Arterial and valve calcification in a renal dialysis patient; type: in vivo, human; details: 90 mg 2-hour i.v. infusion once a month for three months, one year following initial treatment
Experimental: The Effect of a Bisphosphonate on Arterial and Valve Calcification in a Renal Dialysis Patient A patient with end stage renal failure undergoing dialysis was diagnosed with severe osteoporosis. The patient was treated with 90 mg of pamidronate disodium administered via a 2-hour intravenous infusion once a month for a total of three months. […] This reduction in calcification was independently corraborated by three physicians who viewed the radiographic images in a blinded fashion.

[2] = test system: PDGF receptor immunocomplexes of BALB/c 3T3 cells; details: free drug, day after day
Experimental: PDGF-stimulated receptor tyrosine kinase assay is performed on the last piece of each sample to determine the zoledronic acid activity. The inhibition of PDGF-stimulated receptor tyrosine kinase activity in vitro is measured in PDGF receptor immunocomplexes of BALB/c 3T3 cells, analogously to the method described by E. Andrejauskas-Buchdunger and U. Regenass in Cancer Research 52, 5353-5358 (1992).

[3] = Stability of zoledronic acid in human plasma; type: in vitro ADME; details: 37° C. for 72 hours
[4] = test system: New Zealand White rabbit iliac arteries; assay: Rabbit iliac stent model, restenosis at 28 days; type: in vivo
Experimental: A combined angioplasty and stenting procedure is performed in New Zealand White rabbit iliac arteries. Iliac artery balloon injury is performed by inflating a 3.0×9.0 mm angioplasty balloon in the mid-portion of the artery followed by “pull-back” of the catheter for 1 balloon length. Balloon injury is repeated 2 times, and a 3.0×12 mm stent is deployed at 6 atm for 30 seconds in the iliac artery. Balloon injury and stent placement is then performed on the contralateral iliac artery in the same manner. A post-stent deployment angiogram is performed. All animals receive oral aspirin 40 mg/day daily as anti-platelet therapy and are fed standard low-cholesterol rabbit chow. Twenty-eight days after stenting, animals are anesthetized and euthanized and the arterial tree is perfused at 100 mmHg with lactated Ringer's for several minutes, then perfused with 10% formalin at 100 mmHg for 15 minutes. The vascular section between the distal aorta and the proximal femoral arteries is excised and cleaned of periadventitial tissue. The stented section of artery is embedded in plastic and sections are taken from the proximal, middle, and distal portions of each stent. All sections are stained with hematoxylin-eosin and Movat pentachrome stains. Computerized planimetry is performed to determine the area of the internal elastic lamina (IEL), external elastic lamina (EEL) and lumen. The neointima and neointimal thickness is measured both at and between the stent struts. The vessel area is measured as the area within the EEL. Data are expressed as mean±SEM. Statistical analysis of the histologic data is accomplished using analysis of variance (ANOVA) due to the fact that two stented arteries are measured per animal with a mean generated per animal. A P<0.05 is considered statistically significant.
Zoledronic acid is administered orally by gavage at 30 mg/kg once daily from 3 days prior to stenting until day 27 post-stenting.

[5] = test system: LDLr−/− mice; assay: Mouse model of progression of advanced atherosclerosis with vulnerable plaques (arterial calcification, valve calcification, plaque stabilization); type: in vivo
Experimental: A mouse model of progression of advanced atherosclerosis with development of vulnerable plaques was employed. Male, 4-6 week old LDLr−/− mice were divided into treatment groups of 18-20 animals each. […] The remaining LDLr−/− animals were dosed subcutaneously once per day with either vehicle or zoledronic acid solution (10 mg/kg/day) five out of seven days a week from week from week 15 through week 18 of diet administration. From weeks 19 through 22, no treatment was administered, however mice remained on the atherosclerosis-inducing high cholesterol/cholic acid diet. Mice were sacrificed at the end of week 22 and the heart and aorta were removed. The upper portion of the heart attached to the most proximal portion of the aorta containing the aortic sinus were embedded in OCT and frozen. 10 micron-thick sections were cut through the aortic sinus using a cryostat. Twenty-eight sections per animal were stained with von Kassa and/or hematoxylin. Cross-sectional areas were analyzed by planimetry to allow determination of atherosclerotic lesion area and extent of calcification within the heart valves. The remaining aorta, from the ascending aorta to the iliac bifurcation, as well as the major branches of the aorta were fixed, parafin embedded and cross sectioned for histologic analysis. Atherosclerosis extent and lesion composition was determined for the aorta and innominate (also called brachiocephalic) arteries using approriate staining methodology including hemotoxylin and eosin staining, Verhoff von Giessen staining for elastin, Von Kassa staining for calcium, and immunohistochemical stains for inflammatory cells.

[6] = test system: rat carotid arteries, balloon injured; assay: 28 day rat carotid artery balloon injury model (late neointimal lesion formation); type: in vivo; details: for percent inhibition of neointimal lesion formation: 28 days post-balloon injury
Experimental: Inhibition of Late Neointimal Lesion Formation in the 28 Day Rat Carotid Artery Balloon Injury Model
Zoledronic acid is tested in the following rat model.
Rats are dosed orally with […]. Daily dosing starts 3 days prior to surgery and continues for 31 days. Rat carotid arteries are balloon injured using a method described by Clowes et al. Lab. Invest. 1983; 49; 208-215. Following sacrifice at 28 days post-balloon injury, carotid arteries are removed and processed for histologic and morphometric evaluation.

[7] = at 22 weeks, vs baseline lesions at 15 weeks and vehicle at 22 weeks

Row | SMILES | arterial and valve calcification (radiographic images) [1] | activity over time in the same assay [2] | stability in human plasma [3] | extent of restenotic lesion formation ([4]; 30 mg/kg oral gavage once daily, vs placebo) | EEL area compared with control (constrictive remodeling or aneurysmal-type expansion) ([4]; 30 mg/kg oral once daily) | healing of the intima in stented arterial segments ([4]; 30 mg/kg oral once daily) | reduction in average neointimal thickness ([4]; 30 mg/kg oral once daily, P<0.0001) [%] | reduction in percent arterial stenosis ([4]; 30 mg/kg oral once daily, P<0.0002) [%] | reduction in neointimal area ([4]; 30 mg/kg oral once daily, P<0.04) [%] | plaque phenotype (vulnerable or rupture-prone plaques) ([5]; 10 mg/kg/day s.c., four weeks, at 22 weeks, vs baseline and vehicle) | calcification of the aortic valves ([5]; 10 mg/kg/day s.c., vs placebo-treated animals) | progression of atherosclerosis in the aorta and innominate arteries ([5]; 10 mg/kg/day s.c., weeks 15-18, read at 22 weeks of high cholesterol/cholic acid diet, vs vehicle) | fibrous caps of atherosclerotic lesions [5, 7] | inflammatory cells and areas of calcification in atherosclerotic lesions [5, 7] | percent inhibition of neointimal lesion formation ([6]; 0.5 mg/kg oral gavage) [%] | percent inhibition of neointimal lesion formation ([6]; 2.0 mg/kg oral gavage) [%] | neointimal lesion formation at 28 days following balloon injury ([6]; oral, daily, dose of from 0.2 to 3.5 mg)
1 | NCCC(O)(P(=O)(O)O)P(=O)(O)O [pamidronate disodium, 3-amino-1-hydroxypropane-1,1-diphosphonic acid] | noticeable reduction |  |  |  |  |  |  |  |  |  |  |  |  |  |  |  | 
2 | O=P(O)(O)C(O)(Cn1ccnc1)P(=O)(O)O [zoledronic acid, 2-(imidazol-1yl)-1-hydroxyethane-1,1-diphosphonic acid] |  | strong decrease | stable | marked reduction | did not result in differences | well healed | 29 | 17 | 17 | more stable phenotype | significantly less calcification | significantly reduced progression | thicker fibrous caps | less inflammatory cells and areas of calcification | 17 | 37 | significantly reduce
